This is an account of results in the NIST ThermoML archive (doi:10.1021/je8005979).

For the data set the following is noted: Crystal; visual observation.

Molecules are shown by their SMILES. Numbers after ± are expanded uncertainties.

On to `CCCCCCCCCCCCCCCC(=O)O` [hexadecanoic acid], for which the Normal melting temperature is 62.7 ± 0.4 °C.
